Target: T1, PCSK9 (Homo sapiens, UniProt Q8NBP7)
T1 construct: gift from Dr. Daniel Kirchhofer, Genentech
Assay: SPR measurement of PCSK9 binding to synthesized pep2-8
Settings: synthesized peptide on streptavidin-coated gold surface, average and standard deviation over PCSK9 concentrations
Description: The synthesized peptide was immobilized to a streptavidin-coated gold surface. Different concentrations of PCSK9 were flowed to the surface to measure the binding kinetics.
The SPR sensor chip was fabricated by coating 1.5 nm Cr and then 47 nm Au on cover glass (no. 1 VWR) using an e-beam evaporator. Prior to surface functionalization, the gold surface was cleaned with ethanol and DI water twice, dried by N2, and annealed by H2 flame. The gold chip was immersed in a mixture of 0.2 mM SH-PEG8-COOH and 0.2 mM MT(PEG)4 overnight. Then, —COOH was activated using NHS/EDC chemistry (50 mM NHS and 200 mM EDC) for 20 min and incubated with 0.1 mg/mL streptavidin in PBS for 30 min to allow immobilization. The remaining unreacted sites were quenched with 10 mM ethanolamine and the nonspecific binding sites were blocked with SuperBlock for 10 min. […] The functionalized chip was finally rinsed with PBS before the measurement.

T1 sequence (Q8NBP7 153-692, species assumed): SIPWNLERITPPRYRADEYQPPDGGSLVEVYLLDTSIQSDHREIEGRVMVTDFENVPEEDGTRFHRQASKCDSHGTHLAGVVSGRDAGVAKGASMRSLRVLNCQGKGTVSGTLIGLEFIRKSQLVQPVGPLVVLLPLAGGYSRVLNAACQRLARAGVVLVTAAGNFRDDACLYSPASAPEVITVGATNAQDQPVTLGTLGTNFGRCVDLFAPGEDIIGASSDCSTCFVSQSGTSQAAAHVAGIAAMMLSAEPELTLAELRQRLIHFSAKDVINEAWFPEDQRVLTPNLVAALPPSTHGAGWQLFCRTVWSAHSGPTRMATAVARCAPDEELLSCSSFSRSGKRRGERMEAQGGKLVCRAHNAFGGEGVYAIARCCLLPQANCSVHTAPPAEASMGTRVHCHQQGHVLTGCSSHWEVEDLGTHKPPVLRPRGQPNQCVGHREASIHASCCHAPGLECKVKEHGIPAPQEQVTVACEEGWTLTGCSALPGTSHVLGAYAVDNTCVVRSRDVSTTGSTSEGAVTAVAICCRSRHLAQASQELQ

With `CC(=O)N[C@H](C(=O)N[C@H](C(=O)N[C@@H](Cc1ccccc1)C(=O)N[C@H](C(=O)N[C@@H](CO)C(=O)N[C@@H](Cc1c[nH]c2ccccc12)C(=O)N[C@@H](CCC(=O)O)C(=O)N[C@@H](CCC(=O)O)C(=O)N[C@@H](Cc1ccc(O)cc1)C(=O)N[C@@H](CC(C)C)C(=O)N[C@@H](CC(=O)O)C(=O)N[C@@H](Cc1c[nH]c2ccccc12)C(=O)N[C@H](C(N)=O)C(C)C)[C@@H](C)O)C(C)C)[C@@H](C)O` [pep2-8] the kd was “(1.73±0.25)×10^−1 s^−1”.
